According to publication PMC10464555 (Journal of Enzyme Inhibition and Medicinal Chemistry, 2023):

Molecular target: T1, sEH enzyme (Homo sapiens, UniProt P34913)
T1 sequence (P34913 1-555): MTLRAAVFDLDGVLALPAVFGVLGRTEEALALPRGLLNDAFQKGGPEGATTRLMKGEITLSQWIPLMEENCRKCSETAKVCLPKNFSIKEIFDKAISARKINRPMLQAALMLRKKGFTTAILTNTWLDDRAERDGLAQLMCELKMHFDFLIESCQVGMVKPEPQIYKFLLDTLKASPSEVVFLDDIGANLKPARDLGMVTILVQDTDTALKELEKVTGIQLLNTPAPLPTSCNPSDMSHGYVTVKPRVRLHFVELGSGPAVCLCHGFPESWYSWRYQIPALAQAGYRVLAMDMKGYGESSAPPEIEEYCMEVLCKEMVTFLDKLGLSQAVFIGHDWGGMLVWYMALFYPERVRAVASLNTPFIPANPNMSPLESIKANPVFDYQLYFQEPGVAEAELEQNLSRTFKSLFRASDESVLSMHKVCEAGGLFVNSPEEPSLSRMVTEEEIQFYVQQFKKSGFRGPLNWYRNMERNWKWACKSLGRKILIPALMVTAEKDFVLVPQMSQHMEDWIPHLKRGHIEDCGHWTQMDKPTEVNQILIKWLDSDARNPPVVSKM
Experiment: sEH enzyme kinetics
Format: biochemical
Details: for Ki: Ki (μM), Dixon plots; for Inhibition type: Lineweaver–Burk plots

| Ki [µM] | Inhibition type | SMILES |
| --- | --- | --- |
| 11.1 | Competitive | O=C(CCCCCCCCc1ccc(O)c(O)c1)c1c(O)cccc1O [Compound 20, malabaricone C] |
| 20.9 | Competitive | O=C(CCCCCCCCc1ccc(O)cc1)c1c(O)cccc1O [Compound 19, malabaricone B] |
